Test system: M. terrae cells
Assay: PAA time course, cell suspension testing of M. terrae cell resistance to high-level disinfection
Format: cell-based, Mycobacterium terrae ATCC 15755
Conditions: for Log Population / Log reduction / M. terrae Population: 850 ppm PAA, 30° C., 21 days growth culture
Method: Into a 50 ml polypropylene tube, pipet 0.85 ml of RAPICIDE Part A, 0.85 ml of RAPICIDE part B, and mix with 48.3 ml of distilled water. Vortex to mix thoroughly. Place tube in 30° C. water bath to equilibrate for at least 10 minutes before use.
PAA Time course: Exposure to PAA for various contact time points at 30° C. at the minimum effective concentration of RAPICIDE PAA (850 ppm). 10 μl of M. terrae cell samples at a target concentration of at least 1×10^8 cfu/mL were added to a 1.5 mL […] each sample in a 30° C. water bath. At the end of each contact time, samples were neutralized by adding 600 μL of 3% sodium thiosulfate with 0.05% Tween 80 for 15 mins at 30° C. Samples were centrifuged for 10 mins at 14000 rpm at 4 C. The supernatant was decanted off and samples were resuspended in 1 ml of BBL buffer. Serial dilutions (1:10) were made of each sample and 1 mL of each dilution was plated on Middlebrook 7H10 agar with Middlebrook OADC enrichment. Plates were incubated at 37° C. for 14-21 days.
The procedure of Example 1 was repeated using 21-days growth cells, with the M. terrae cells exposed to PAA instead of OPA.

CC(=O)OO [PAA, peracetic acid]
Log Population (exposure 1 seconds): 10.2
Log reduction (exposure 1 seconds): 0.0
M. terrae Population (exposure 1 seconds): 1.53E+10 CFU
Log Population (exposure 15 seconds): 9.5
Log reduction (exposure 15 seconds): 0.7
M. terrae Population (exposure 15 seconds): 3.45E+09 CFU
Log Population (exposure 30 seconds): 8.1
Log reduction (exposure 30 seconds): 2.1
M. terrae Population (exposure 30 seconds): 1.40E+08 CFU
Log Population (exposure 60 seconds): 7.3
Log reduction (exposure 60 seconds): 2.9
M. terrae Population (exposure 60 seconds): 2.00E+07 CFU
Log Population (exposure 90 seconds): 0
Log reduction (exposure 90 seconds): 10.2
M. terrae Population (exposure 90 seconds): 1.00E+00 CFU
Log Population (exposure 120 seconds): 0
Log reduction (exposure 120 seconds): 10.2
M. terrae Population (exposure 120 seconds): 1.00E+00 CFU
Log Population (exposure 150 seconds): 0
Log reduction (exposure 150 seconds): 10.2
M. terrae Population (exposure 150 seconds): 1.00E+00 CFU
Log Population (exposure 180 seconds): 0
Log reduction (exposure 180 seconds): 10.2
M. terrae Population (exposure 180 seconds): 1.00E+00 CFU
Log Population (exposure 210 seconds): 0
Log reduction (exposure 210 seconds): 10.2
M. terrae Population (exposure 210 seconds): 1.00E+00 CFU
Log Population (exposure 240 seconds): 0
Log reduction (exposure 240 seconds): 10.2
M. terrae Population (exposure 240 seconds): 1.00E+00 CFU
Log Population (exposure 270 seconds): 0
Log reduction (exposure 270 seconds): 10.2
M. terrae Population (exposure 270 seconds): 1.00E+00 CFU
Log Population (exposure 300 seconds): 0
Log reduction (exposure 300 seconds): 10.2
M. terrae Population (exposure 300 seconds): 1.00E+00 CFU
exposure to PAA for a 6 log reduction in M. terrae cells (PAA at 30° C., 21-days growth cells): about 75 seconds
